The values that follow come from US12247064B2, “Modified ligand-gated ion channels and methods of use” (Howard Hughes Medical Institute, priority 2017, dated 2025).

One test deals with T1, α7GlyR Q79G G175K Y115F (Homo sapiens, UniProt P36544, G175K/Q79G/Y115F).
T1 construct: expressed in transfected cells
The test is described as follows: Agonist potency at chimeric channel. In kind it is cell-based. Particulars: Table 6.

Another test concerns the target T2, α7GlyR W77F Q79G G175K (Homo sapiens, UniProt P36544, G175K/Q79G/W77F).
T2 construct: expressed in transfected cells
Nature of the test: Agonist potency at chimeric channel. Particulars: Table 6. In kind it is cell-based.

The next test deals with α7-5HT3 (Homo sapiens, UniProt P36544, M226I/T225I).
α7-5HT3, sequence (P36544 with tags, fused parts or gaps T225I/M226I limits assumed): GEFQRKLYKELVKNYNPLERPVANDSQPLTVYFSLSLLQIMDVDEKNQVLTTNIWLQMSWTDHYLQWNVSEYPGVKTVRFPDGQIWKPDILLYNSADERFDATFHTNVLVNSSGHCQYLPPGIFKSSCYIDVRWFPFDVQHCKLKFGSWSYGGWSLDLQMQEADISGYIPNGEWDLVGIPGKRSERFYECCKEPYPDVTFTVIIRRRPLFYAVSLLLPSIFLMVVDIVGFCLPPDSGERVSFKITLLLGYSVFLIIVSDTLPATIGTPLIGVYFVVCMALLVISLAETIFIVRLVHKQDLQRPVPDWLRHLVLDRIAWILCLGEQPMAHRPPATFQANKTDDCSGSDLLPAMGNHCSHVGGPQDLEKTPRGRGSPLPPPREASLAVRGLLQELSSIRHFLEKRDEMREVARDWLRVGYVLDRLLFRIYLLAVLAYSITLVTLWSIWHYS
The target of the next test is T3, α7GlyR P216I (Homo sapiens, UniProt P36544, P216I).
T3 construct: expressed in transfected cells
T3 sequence (P36544 with tags, fused parts or gaps P216I): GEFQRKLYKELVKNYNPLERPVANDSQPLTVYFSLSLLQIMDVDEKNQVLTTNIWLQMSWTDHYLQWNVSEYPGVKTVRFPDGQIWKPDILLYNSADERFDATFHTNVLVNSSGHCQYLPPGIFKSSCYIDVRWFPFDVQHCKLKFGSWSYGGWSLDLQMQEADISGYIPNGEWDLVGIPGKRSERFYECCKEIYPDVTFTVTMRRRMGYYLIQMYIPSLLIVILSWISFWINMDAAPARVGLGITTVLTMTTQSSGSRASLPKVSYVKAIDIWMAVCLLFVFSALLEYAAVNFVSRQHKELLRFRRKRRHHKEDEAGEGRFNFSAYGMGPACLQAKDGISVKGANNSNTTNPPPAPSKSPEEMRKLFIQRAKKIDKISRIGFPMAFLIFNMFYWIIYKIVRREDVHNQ
The test is described as follows: Agonist potency at chimeric channel. In kind it is cell-based.

For the next test, the target named is T4, α7GlyR G175K (Homo sapiens, UniProt P36544, G175K).
T4 construct: expressed in transfected cells
T4 sequence (P36544 with tags, fused parts or gaps G175K): as the sequence (P36544 with tags, fused parts or gaps P216I) above, with G153K, I194P counted along it
The test is described as follows: Agonist potency at chimeric channel. It counts as cell-based.

Test [1] concerns α7GlyR G175K / A298G mutant chimeric channels. In kind it is cell-based, human. The settings on record: read-out: Agonist potency.
For another test, the target named is T5, α7^R21D,E41R-5HT3 (Homo sapiens, UniProt P36544, E41R/M226I/R27D/T225I).
T5 construct: expressed in transfected cells; host or cells: HEK cells
T5 sequence (P36544 with tags, fused parts or gaps R27D/E41R/T225I/M226I): as the sequence (P36544 with tags, fused parts or gaps T225I/M226I limits assumed) above, with R5D, E19R counted along it
Nature of the test: Whole cell recordings in HEK cells expressing charge reversal channel. It counts as cell-based. Particulars: V5 epitope tag.

Another test addresses T6, α7^Q79G-GlyR (Homo sapiens, UniProt P36544, Q79G).
T6 construct: expressed in transfected cells; host or cells: HEK cells
It counts as cell-based. The settings on record: HEK cells; Table 2; read-out: Mean EC50 and SEM in parentheses.

The target in another test is T7, α7-GlyR^A298G (Homo sapiens, UniProt P36544, A298G).
T7 construct: expressed in transfected cells; host or cells: HEK cells
T7 sequence (P36544 with tags, fused parts or gaps, stated change not applied): as the sequence (P36544 with tags, fused parts or gaps P216I) above, with I194P, A276G counted along it
In kind it is cell-based. Particulars: HEK cells; Table 2; read-out: Mean EC50 and SEM in parentheses.

A further test deals with T8, α7^Q79G-5HT3 (Homo sapiens, UniProt P36544, M226I/Q79G/T225I).
T8 construct: expressed in transfected cells; host or cells: HEK cells
T8 sequence (P36544 with tags, fused parts or gaps Q79G/T225I/M226I limits assumed): as the sequence (P36544 with tags, fused parts or gaps T225I/M226I limits assumed) above, with Q57G counted along it
It counts as cell-based, human α7 nAChR LBD, murine 5HT3 IPD. Particulars: HEK cells; Table 1.

For the next test, the target named is T9, α7^Q79A-5HT3 (Homo sapiens, UniProt P36544, M226I/Q79A/T225I).
T9 construct: expressed in transfected cells; host or cells: HEK cells
T9 sequence (P36544 with tags, fused parts or gaps Q79A/T225I/M226I limits assumed): as the sequence (P36544 with tags, fused parts or gaps T225I/M226I limits assumed) above, with Q57A counted along it
In kind it is cell-based, human α7 nAChR LBD, murine 5HT3 IPD. Particulars: HEK cells; Table 1.

The next test addresses α7-GlyR (Homo sapiens, UniProt P36544).
The target in another test is T10, α7^Q79A-GlyR (Homo sapiens, UniProt P36544, Q79A).
T10 construct: expressed in transfected cells; host or cells: HEK cells
T10 sequence (P36544 with tags, fused parts or gaps Q79A): as the sequence (P36544 with tags, fused parts or gaps P216I) above, with Q57A, I194P counted along it
It counts as cell-based. The settings on record: HEK cells; Table 2; read-out: Mean EC50 and SEM in parentheses.

Another test concerns the target T11, α7^Q79S-5HT3 (Homo sapiens, UniProt P36544, M226I/Q79S/T225I).
T11 construct: expressed in transfected cells; host or cells: HEK cells
In kind it is cell-based, human α7 nAChR LBD, murine 5HT3 IPD. Particulars: HEK cells; Table 1.

A further test relates to α7GABAc W298A (GABAA-ρ). The test is described as follows: Agonist potency at α7GABAc channel with W298A (Table 7). In kind it is cell-based, human. Particulars: a7GABAc Q79G L141F W298A.
For the next test, the target named is T12, α7^L131A-GlyR (Homo sapiens, UniProt P36544, L131A).
T12 construct: expressed in transfected cells
T12 sequence (P36544 with tags, fused parts or gaps L131A limits assumed): as the sequence (P36544 with tags, fused parts or gaps P216I) above, with L109A, I194P counted along it
It counts as cell-based. The settings on record: over α7-GlyR.

Test [2] concerns cortical neurons expressing PSAM^4-5HT3 HC. Nature of the test: Chemogenetic activation of cortical neurons expressing PSAM^4-5HT3 HC. It counts as cell-based, mouse. The text has this: FIGS. 12A-12F show chemogenetic perturbation of cortical neuron activity. […] FIG. 12C) Cortical layer 2/3 neuron membrane properties were similar in PSAM^4-GlyR expressing neurons and intermingled untransfected control neurons. […] FIG. 12F) Cortical layer 2/3 neuron membrane properties are similar in PSAM^4-5HT3 HC expressing neurons and intermingled untransfected control neurons. Data are mean±SEM. Mann Whitney U-test, n.s. P>0.05, ***P<0.001.
Chemogenetic perturbation of cortical neuron activity was evaluated. […] Cortical layer 2/3 neuron membrane properties were similar in PSAM^4-GlyR expressing neurons and intermingled untransfected control neurons. […] Cortical layer 2/3 neuron membrane properties are similar in PSAM^4-5HT3 HC expressing neurons and intermingled untransfected control neurons. See, e.g., FIG. 12.

The next test concerns the target T13, 5HT3-R (Homo sapiens, UniProt P46098).
T13 sequence (P46098 24-478): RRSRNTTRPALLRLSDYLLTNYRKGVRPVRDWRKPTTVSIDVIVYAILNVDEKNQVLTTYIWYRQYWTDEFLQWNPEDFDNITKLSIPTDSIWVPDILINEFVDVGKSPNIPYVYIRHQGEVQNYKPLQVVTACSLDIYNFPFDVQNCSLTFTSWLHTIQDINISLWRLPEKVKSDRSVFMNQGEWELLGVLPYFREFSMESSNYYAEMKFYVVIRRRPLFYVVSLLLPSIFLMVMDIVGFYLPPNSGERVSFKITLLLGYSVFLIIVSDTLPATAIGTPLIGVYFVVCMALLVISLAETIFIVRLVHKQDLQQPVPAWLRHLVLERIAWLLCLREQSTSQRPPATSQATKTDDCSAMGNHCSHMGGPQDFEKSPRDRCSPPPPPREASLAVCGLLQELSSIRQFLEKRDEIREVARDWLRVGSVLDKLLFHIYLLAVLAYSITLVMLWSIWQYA
Nature of the test: Agonist potency at 5HT3-R. It counts as cell-based.

The subject of test [3] is mice expressing PSAM^4-GlyR unilaterally in SNr. Nature of the test: Unilateral SNr silencing rotation assay. In kind it is in vivo, mouse.
In test [4] the target is T14, α4β2 nAChR (Homo sapiens, UniProt P17787+P43681). In kind it is cell-based. The text has this:
FIGS. 14A-14J show ultrapotent chemogenetic agonists (uPSEMs). […] LED: lowest effective dose for mice in SNr rotation assay. Units: nM; parentheses: SEM. Selectivity relative to PSAM^4-GlyR in bold. […] (FIG. 14E) Response amplitude normalized to ACh.

The target of test [5] is T14, α4β2 nAChR. Nature of the test: Agonist potency at α4β2 nAChR.
Setting [6] is: α7GlyR Q79G A298G Y115F K395 K396A.

Like-named read-outs stand apart in the source and are kept apart here.

T14 sequence (P43681 29-627 limits assumed): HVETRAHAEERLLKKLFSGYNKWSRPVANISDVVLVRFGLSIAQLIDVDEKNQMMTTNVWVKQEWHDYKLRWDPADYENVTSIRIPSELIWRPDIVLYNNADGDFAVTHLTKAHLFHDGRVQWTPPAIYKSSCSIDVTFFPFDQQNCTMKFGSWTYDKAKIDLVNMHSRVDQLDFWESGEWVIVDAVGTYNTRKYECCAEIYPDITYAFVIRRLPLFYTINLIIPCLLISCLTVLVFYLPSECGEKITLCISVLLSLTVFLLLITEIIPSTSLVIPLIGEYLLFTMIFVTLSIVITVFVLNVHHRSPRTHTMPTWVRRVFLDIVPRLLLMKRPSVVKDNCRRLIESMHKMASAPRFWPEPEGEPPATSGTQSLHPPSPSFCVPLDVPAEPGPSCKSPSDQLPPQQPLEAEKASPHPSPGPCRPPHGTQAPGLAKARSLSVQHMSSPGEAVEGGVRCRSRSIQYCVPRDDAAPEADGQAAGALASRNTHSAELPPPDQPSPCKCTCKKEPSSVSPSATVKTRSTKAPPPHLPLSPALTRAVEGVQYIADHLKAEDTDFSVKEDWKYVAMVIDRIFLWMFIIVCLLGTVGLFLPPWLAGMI
T14 sequence (P17787 26-502): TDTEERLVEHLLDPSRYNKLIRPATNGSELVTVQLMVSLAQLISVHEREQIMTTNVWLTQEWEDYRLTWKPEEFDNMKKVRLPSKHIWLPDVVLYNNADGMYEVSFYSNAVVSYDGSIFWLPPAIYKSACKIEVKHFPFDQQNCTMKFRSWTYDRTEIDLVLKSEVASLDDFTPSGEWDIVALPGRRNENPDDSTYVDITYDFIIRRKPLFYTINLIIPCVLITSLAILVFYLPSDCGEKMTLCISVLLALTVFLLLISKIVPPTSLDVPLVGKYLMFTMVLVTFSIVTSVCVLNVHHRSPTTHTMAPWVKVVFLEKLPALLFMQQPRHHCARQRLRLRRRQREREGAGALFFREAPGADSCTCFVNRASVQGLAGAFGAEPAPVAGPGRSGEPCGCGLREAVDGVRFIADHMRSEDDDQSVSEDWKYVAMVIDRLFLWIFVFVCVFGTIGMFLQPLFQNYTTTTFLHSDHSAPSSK
α7-GlyR, sequence (P36544 with tags, fused parts or gaps): as the sequence (P36544 with tags, fused parts or gaps P216I) above, with I194P counted along it
T1 sequence (P36544 with tags, fused parts or gaps Q79G/Y115F/G175K): as the sequence (P36544 with tags, fused parts or gaps P216I) above, with Q57G, Y93F, G153K, I194P counted along it
T2 sequence (P36544 with tags, fused parts or gaps W77F/Q79G/G175K): as the sequence (P36544 with tags, fused parts or gaps P216I) above, with W55F, Q57G, G153K, I194P counted along it
T11 sequence (P36544 with tags, fused parts or gaps Q79S/T225I/M226I limits assumed): as the sequence (P36544 with tags, fused parts or gaps T225I/M226I limits assumed) above, with Q57S counted along it
T6 sequence (P36544 with tags, fused parts or gaps Q79G): as the sequence (P36544 with tags, fused parts or gaps P216I) above, with Q57G, I194P counted along it

On to `c1ccc2c(c1)Sc1ccccc1N2CC1CN2CCC1CC2` (stereo not shown) [Mequitazine, reference compound], for which the EC50 at α7GlyR Q79G G175K Y115F was > 10000 nM; on α7GlyR W77F Q79G G175K, 150 nM; on α7-5HT3 (read-out: Potency, Table 6), > 30000 nM.

Take `CN1CCCC1c1cccnc1` (stereo not shown) [Nicotine]: the increased potency at α7GlyR P216I is reported as > 4 fold; at α7GlyR G175K it was 10 fold.

On to `O=C(NC1CN2CCC1CC2)c1ccc(Cl)cc1` (stereo not shown) [PNU-282987], for which the EC50 was found to be 9 nM in test [1] (α7GlyR Q79G A298G G175K Y115F); 250 nM in [1] (α7GlyR Q79G A298G P216I); 110 nM in test [1] (setting [6]); 0.36 nM in test [1] (α7GlyR Q79G G175K A298G); 1630 nM in test [1] (α7GlyR Q79G W77F A298G); 340 nM in test [1] (α7GlyR R27D E41R Q79G Y115F). Besides, the whole cell responses result at α7^R21D,E41R-5HT3 is “potent responses”.

For the compound `Cn1cc(C(=O)C(=O)NC2CN3CCC2CC3)c2ccccc21` (stereo not shown) [RS56812], the EC50 at α7^Q79G-GlyR is 2000 nM; at α7-GlyR^A298G, 2300 nM; on α7^Q79G-5HT3 it was 1400 nM; on α7^Q79A-5HT3, 6800 nM; at α7-GlyR, 6500 nM; at α7^Q79A-GlyR, 3500 nM. For the same compound, the EC50 was determined as 10000 nM at α7-5HT3 (read-out: Mean EC50, HEK cells, Table 1) and 5700 nM on α7^Q79S-5HT3.

Regarding `c1cnc2cc3c(cc2n1)[C@@H]1CNC[C@H]3C1` [Varenicline], the EC50 with α7GABAc W298A (GABAA-ρ) was 6270 nM; at 5HT3-R (5HT3-R, Table 10), 1400 nM; in test [1] (α7GlyR Q79G A298G G175K Y115F), 2370 nM; in [1] (setting [6]), > 30000 nM; in test [1] (α7GlyR Q79G G175K A298G), 22 nM; in [1] (α7GlyR Q79G W77F A298G), 3660 nM. For the same compound, the EC50 in test [1] (α7GlyR R27D E41R Q79G Y115F) was > 30000 nM. Further, the enhanced potency at α7^L131A-GlyR was 8 fold. Also, the “membrane potential and firing” value in [2] is “depolarizes and elicits firing”. Further, in [3] (low doses, intraperitoneal, not in sham operated or EGFP-alone mice), the rotation response result is on record as “elicit contraversive rotation”. Also, the “doses at which circling contralateral to the silenced SNr was seen” value in test [3] (mice) is reported as “above 0.1 mpk”. In [3] (mice), the “improvement in potency over anti-nicotine activity” value is 10 fold. Besides, in [3] (two doses separated by 5 hours), the “tachyphylaxis of the chemogenetic response” value is recorded as “no tachyphylaxis”.

As for `CCCOc1cnc2cc3c(cc2n1)C1CNCC3C1` (stereo not shown) [compound 817], the EC50 on α7-GlyR was > 100000 nM; at 5HT3-R (read-out: EC50MP) it was 1500 ± 1000 nM; on α7-5HT3 (read-out: EC50MP), > 100000 nM; at α4β2 nAChR [5] (read-out: EC50MP), > 30000 nM. Also, the “effect on α4β2 nAChR” value at α4β2 nAChR [4] is on record as “inhibits”. The “α4β2 nAChR agonism” value at α4β2 nAChR [5] is recorded as “do not show evident α4β2 nAChR agonism”. Besides, the In vivo potency in test [3] (SNr silencing rotation assay in mice) is 0.1 mpk.
